Measured values published in patent US20150110723A1, “QUINAZOLINE DERIVATIVES, COMPOSITIONS, AND USES RELATED THERETO” (EMORY UNIVERSITY, priority 2012, published 2015).
Each block holds one molecule with its values, some of them ahead of it.

Key:
[1] = target: T1, human Myeloperoxidase (Homo sapiens, UniProt P05164); test: Amplex Red assay of purified MPO activity; format: biochemical; details: isolated purified human MPO, hydrogen peroxide as substrate
T1 sequence (P05164 49-745): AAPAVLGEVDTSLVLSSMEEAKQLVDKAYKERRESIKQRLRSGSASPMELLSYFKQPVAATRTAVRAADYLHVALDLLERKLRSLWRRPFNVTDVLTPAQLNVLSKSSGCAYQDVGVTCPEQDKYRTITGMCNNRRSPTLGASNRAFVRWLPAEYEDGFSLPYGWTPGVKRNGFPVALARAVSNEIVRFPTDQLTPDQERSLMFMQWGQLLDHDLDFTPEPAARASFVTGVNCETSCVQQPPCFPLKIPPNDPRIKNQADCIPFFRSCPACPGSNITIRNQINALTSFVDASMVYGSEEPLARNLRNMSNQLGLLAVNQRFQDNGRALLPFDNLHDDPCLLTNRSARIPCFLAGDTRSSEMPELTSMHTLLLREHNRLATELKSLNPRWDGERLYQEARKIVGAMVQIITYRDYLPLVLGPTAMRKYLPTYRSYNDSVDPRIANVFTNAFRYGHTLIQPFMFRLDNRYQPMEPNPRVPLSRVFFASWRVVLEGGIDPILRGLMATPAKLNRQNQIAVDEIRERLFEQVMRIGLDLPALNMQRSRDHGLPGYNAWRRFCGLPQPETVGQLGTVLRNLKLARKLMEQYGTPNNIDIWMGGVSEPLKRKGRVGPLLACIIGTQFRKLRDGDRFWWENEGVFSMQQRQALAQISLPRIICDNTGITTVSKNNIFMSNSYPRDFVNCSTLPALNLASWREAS
Experimental: In Table 2, isolated, purified human Myeloperoxidase was used in an enzyme assay system including hydrogen peroxide as substrate and Amplex Red to measure MPO enzymatic activity.
Purified human MPO is mixed with the detector molecule Amplex Red (10-acetyl-3,7-dihydroxyphenoxazine) which increases fluorescence at 590 nm) Hydrogen peroxide is added to initiate the reaction and fluorescence is monitored.

[2] = target: T2, Nox2 (Homo sapiens, UniProt P04839); test: Cytochrome c reduction assay for superoxide in activated human neutrophils; format: cell-based; details: for IC50: isolated human neutrophils, PMA-activated, absorbance at 550 nm
T2 construct: superoxide originates from the endogenous Nox2 enzyme system; endogenous in cells; host or cells: isolated human neutrophils, PMA-stimulated
T2 sequence (P04839 2-570 limits assumed): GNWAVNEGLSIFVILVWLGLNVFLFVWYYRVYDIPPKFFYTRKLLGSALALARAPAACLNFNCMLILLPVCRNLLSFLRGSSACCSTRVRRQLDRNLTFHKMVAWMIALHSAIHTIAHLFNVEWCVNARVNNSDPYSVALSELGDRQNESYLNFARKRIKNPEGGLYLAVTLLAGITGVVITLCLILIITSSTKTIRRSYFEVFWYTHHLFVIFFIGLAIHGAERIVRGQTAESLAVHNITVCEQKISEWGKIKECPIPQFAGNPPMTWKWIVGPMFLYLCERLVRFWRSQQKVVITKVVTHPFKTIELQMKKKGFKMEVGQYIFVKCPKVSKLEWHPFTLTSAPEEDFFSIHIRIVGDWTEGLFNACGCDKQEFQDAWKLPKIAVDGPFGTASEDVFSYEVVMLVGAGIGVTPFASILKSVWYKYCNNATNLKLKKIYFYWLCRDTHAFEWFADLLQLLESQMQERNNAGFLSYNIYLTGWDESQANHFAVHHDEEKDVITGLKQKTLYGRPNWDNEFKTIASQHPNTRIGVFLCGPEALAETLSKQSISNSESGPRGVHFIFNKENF
T2 sequence (P13498 2-195 partner limits assumed): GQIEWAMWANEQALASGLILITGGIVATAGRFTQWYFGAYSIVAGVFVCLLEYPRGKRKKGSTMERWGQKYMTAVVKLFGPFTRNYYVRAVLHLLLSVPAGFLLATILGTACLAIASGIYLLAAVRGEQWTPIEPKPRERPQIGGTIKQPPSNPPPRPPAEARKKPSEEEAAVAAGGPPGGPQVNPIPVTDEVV
Experimental: Isolated human neutrophils represent a system in which superoxide originates from the endogenous Nox2 enzyme system, and can be measured using cytochrome c reduction that is inhibitable by added superoxide dismutase. In Table 3, Nox2 activity in isolated human neutrophils was assayed using cytochrome c reduction.
Isolated human neutrophils, which contain large amounts of Nox2 enzyme, are mixed with superoxide detector cytochrome c. Phorbol 12-myristate 13-acetate (PMA) is added at 1 μM final to stimulate Nox2 activation resulting superoxide production; absorbance at 550 nm is monitored.

[3] = test system: xanthine oxidase; test: Xanthine/xanthine oxidase-L-012 control (interference) assay; format: biochemical; details: L-012 luminescence, FIG. 1 / FIG. 2
Experimental: Two assays are used to rule out interference. In one assay, xanthine oxidase replaces the Nox2 and MPO enzymatic system as the source of ROS. See Ritsick et al. (2007) Free Radic Biol Med 43: 31-8. Xanthine was added to start the reaction and L012 luminescence was recorded. In a control for the luminol assay, exogenous H2O2 is supplied in place of the Nox expressing H2O2-generating cells or enzyme and luminol luminescence is recorded.

[4] = test system: Nox2/MPO System; test: L-012 cell-free assay of Nox2/MPO activity (human neutrophil plasma membranes plus recombinant p47phox, p67phox, Rac1Q61L); format: biochemical; details: for Inhibition of ROS from neutrophil membranes assayed by L-012 (figure legend): cell-free L-012 assay, FIG. 1 / FIG. 2; for IC50: read-out: L-012 Assay IC50 μM ± SEM
Experimental: In Table 1 a cell-free semi-recombinant system (consisting of isolated plasma membranes from human neutrophils as a source for Nox2-p22phox and MPO), supplemented with recombinant p47phox, p67phox and Rac1Q61L (activated Rac), expressed in and isolated from of E. coli. L-012 luminescence was used as a readout to monitor enzymatic activity that monitors the combined enzymatic activity of both the Nox2 system and MPO.
Plasma membranes were prepared from human neutrophils. […]. Membranes were stored at −80 C until use. Membranes are mixed with recombinant, purified cytosolic regulatory proteins (p67Np47 chimera, and constitutively active Rac1 mutant Q61) and FAD, along with varying concentrations of compound, and L-012, which luminesces when it reacts with ROS derived either from Nox2 or from MPO. The reaction is initiated by addition of NADPH and SDS (an artificial activatyor for Nox2). See Curnutte et al., (1987) J. Biol. Chem. 262: 6450-6452.

[5] = cell-free semi-recombinant system, L-012 luminescence, does not distinguish Nox2 from MPO inhibition

IC50 [1]: 1.5 µM
Structure (SMILES): CN(C)CCCn1c(=S)[nH]c2ccccc2c1=O [TG6-17-2]

IC50 [1]: 2 µM
Structure (SMILES): CCN(CC)CCn1c(=S)[nH]c2ccccc2c1=O [TG6-27-2]

IC50 [1]: 1 µM
Effect on control assay with ROS generated from xanthine plus xanthine oxidase [3]: does not affect control assay
IC50 [4, 5]: 1.2 ± 0.1 µM
Structure (SMILES): CN(C)CCCn1c(=S)[nH]c2ccc(Cl)cc2c1=O [TG6-44]
Inhibition of ROS from neutrophil membranes assayed by L-012 (figure legend) [4]: Inhibits ROS activity

IC50 [1]: 1.5 µM
Structure (SMILES): O=c1c2ccccc2[nH]c(=S)n1CCN1CCCC1 [TG6-52-2]

Inhibition of superoxide production from Nox2 in intact human neutrophils (figure legend) ([2]; cytochrome c reduction, absorbance increase at 550 nm, FIG. 3): inhibits superoxide production
IC50 [2]: 2 µM
Structure (SMILES): CC(Sc1nc2ccccc2c(=O)n1CCCN(C)C)C(=O)Nc1nc(-c2cccc(Br)c2)cs1 (centres unmarked) [TG6-73]

IC50 [1]: 2 µM
Structure (SMILES): CN(C)CCCn1c(=S)[nH]c2ccc(F)cc2c1=O [TG6-248]

IC50 [1]: 1 µM
Structure (SMILES): CN(C)CCCn1c(=S)[nH]c2cc(F)c(F)cc2c1=O [TG6-250]

The remaining lines, values behind:

Structure (SMILES): COc1cc2[nH]c(=S)n(CCCCN(C)C)c(=O)c2cc1OC [AS2-30]
IC50 [1]: 4 µM

Structure (SMILES): CN(C)CCCn1c(SCC(=O)Nc2nc(-c3ccc(Br)cc3)cs2)nc2ccccc2c1=O [AS148A]
IC50 [2]: 1 µM

Structure (SMILES): CCN(CC)CCCn1c(SCC(=O)Nc2nc(-c3ccc(Br)cc3)cs2)nc2ccccc2c1=O [AS158A]
IC50 [2]: 0.6 µM

Structure (SMILES): CN(C)CCCCn1c(SCC(=O)Nc2nc(-c3ccc(Br)cc3)cs2)nc2ccccc2c1=O [AS158B]
Effect on control assay with ROS generated from xanthine plus xanthine oxidase [3]: does not affect control assay
Inhibition of ROS from neutrophil membranes assayed by L-012 (figure legend) [4]: inhibits ROS generation
IC50 [2]: 3 µM

Structure (SMILES): CN(C)CCCCn1c(SCC(=O)Nc2nc(-c3cccc(Br)c3)cs2)nc2ccccc2c1=O [AS195]
IC50 [2]: 1.5 µM

Structure (SMILES): COC(=O)c1ccc2c(=O)n(N)c(=S)[nH]c2c1 [AS261b]
IC50 [1]: 1.5 µM

Structure (SMILES): CN(C)CCCn1c(=S)[nH]c2ccccc2c1=O [Compound 2a]
IC50 [4, 5]: 3.3 ± 0.3 µM

Structure (SMILES): CN(C)CCCn1c(=O)[nH]c2ccccc2c1=O [Compound 2b]
L-012 Assay IC50 μM ± SEM [4, 5]: N•I

Structure (SMILES): O=c1c2ccccc2[nH]c(=S)n1CCc1ccccn1 [Compound 2zzz]
IC50 [4, 5]: 4 ± 1 µM

Structure (SMILES): CCn1c(=S)[nH]c2ccc(F)cc2c1=O [Compound 3k]
IC50 [4, 5]: 0.7 ± 0.1 µM

Structure (SMILES): CC(C)n1c(=S)[nH]c2cc(F)c(F)cc2c1=O [Compound 3l]
IC50 [4, 5]: 0.7 ± 0.1 µM

Structure (SMILES): COc1cc2[nH]c(=S)n(C(C)C)c(=O)c2cc1OC [Compound 3m]
IC50 [4, 5]: 0.7 ± 0.1 µM

Structure (SMILES): COCCCn1c(=S)[nH]c2ccccc2c1=O [LY1-21]
IC50 [1]: 3 µM

Structure (SMILES): O=c1c2ccccc2[nH]c(=S)n1CCc1cnc[nH]1 [LY1-27]
IC50 [1]: 1 µM

Structure (SMILES): O=c1c2cc(F)ccc2[nH]c(=S)n1CCc1cnc[nH]1 [LY1-73]
IC50 [1]: 1.5 µM

Structure (SMILES): CN1CCN(CCCn2c(=S)[nH]c3ccc(F)cc3c2=O)CC1 [LY1-107N]
IC50 [1]: 1 µM
